Data: article PMC13534789, “Molecular Glue Degraders Enhance CAPRIN1‐Dependent Lysosomal Degradation of APP and Reduce Amyloid β in Alzheimer's Disease” (Advanced Science, 2026)

Columns and labels:
[1] = biological target: T1, APP695–CAPRIN1 interaction (Homo sapiens, UniProt P05067+Q14444); test: SPR, APP695 onto immobilized CAPRIN1 with 0152; assay type: binding; conditions: equimolar 0152 vs no compound
T1 construct: 10xHis‐MBP‐APP695 (full‐length) alone was loaded; 10xHis (N); MBP (followed by a 3C site) (N); 10xHis (followed by a 3C site) (N); made in house; host or cells: Tni (Hi5) insect cells, baculovirus
Experimental: SPR experiments were conducted to investigate the interaction between APP695 and CAPRIN1 proteins using a Biacore T200 instrument (Cytiva). Both proteins were expressed in Tni (Hi5) insect cells and purified to homogeneity via tandem affinity and ion‐exchange. Protein purity and integrity were confirmed by SDS‐PAGE and size‐exclusion chromatography prior to analysis. All experiments were performed in a running buffer consisting of 50 mM HEPES at […], 100 mM KCl, 10% glycerol, and 0.01% (v/v) Tween‐20 supplemented with 0.1% (w/v) Sarkosyl (pH 7.4). APP695 was serially diluted in running buffer to final concentrations of 15, 5, 1, and 0.3 µM. Chip Preparation: A CM5 sensor chip (Cytiva) was activated using a 1:1 (v/v) mixture of 0.1 M N‐hydroxysuccinimide (NHS) and 0.1 M N‐ethyl‐N′‐(3‐dimethylaminopropyl) carbodiimide (EDC) to generate reactive ester groups. CAPRIN1 was diluted to 50 µg/mL in 10 mM Hepes‐KOH buffer (pH 6.0) and immobilized on the chip surface via standard amine coupling to achieve immobilization. Unreacted sites were blocked with 1 M ethanolamine‐HCl (pH 8.5). A reference flow cell was prepared similarly but without protein immobilization to control for non‐specific binding and bulk refractive index changes. Binding assay: Binding interactions were measured at 25°C with a flow rate of 30 µL/min. APP695 solutions were injected over the CAPRIN1‐immobilized and reference flow cells for 45 s (association phase), followed by a 240 s dissociation phase with running buffer alone. Internal control injections for one concentration of APP695 were performed to ensure reproducibility for every round of the experiment. […] APP (1–300) was also tested for binding to CAPRIN1 under identical conditions. To assess potential non‐specific interactions, 0043 and 0152 were tested for binding to APP‐695 captured on a CM5 chip using a steady‐state model. Data analysis: Sensograms were processed using Biacore T200 Evaluation Software. […]

[2] = test system: AD iPSC‐derived organoids; test: AD iPSC-derived 3D brain organoids; assay type: cell-based, human
Experimental: For generating brain 3D organoids, Lancaster's protocol and Paşca's protocol were used with minor modifications. In brief, 9000 cells/ 100 µL of each well were seeded in Ultra‐low attachment 96 well U‐bottom plates (Sbio) supplemented with 10 µM of ROCK inhibitor. The next day, 100 µL of mTeSR1 was added, and the cells were cultured as embryonic bodies (EB) for 5 days at 37°C in 5% CO2 incubator. When the size of EB reached 400–600 µm, EBs were transferred into ultra‐low binding 24 well (Corning) with 200 µL of neural differentiation medium (Neurobasal medium (Gibco), 2% B27, 1X Glutamax) with 2 µg/mL of Doxycycline and incubated for 5 days at 37°C in 5% CO2 incubator until the size of EB was 700–800 µm. During this step, one EB was in one well, and the culture medium was changed every day with fresh neural differentiation medium with Doxycycline. At day 10, the EB was embedded into 15 µL of 100% Matrigel (Corning), and the embedded EBs were cultured in neural differentiation medium without Doxycycline in 6 well ultra‐low binding plates (Corning). […]
iPSC‐Ns or HEK‐APP695WT were treated with drugs, and secreted Aβ42 peptides inculture soup were quantified using the Human Amyloid β1‐42 human ELISA kit (Thermo Fisher) according to the manufacturer's protocol. […] Prior to quantification, formic acid‐containing samples were neutralized with 1 M Tris base (pH 11). Aβ40 and Aβ42 levels were measured using human‐specific ELISA kits (Invitrogen) and normalized to total protein concentrations determined by the BCA assay (Thermo Scientific). For Aβ quantification in 3D organoids, 3D organoids’ processing and ELISA analysis were performed with minor modifications from previously described protocols. […] Aβ42 levels in both fractions were measured using human‐specific ELISA kits (Thermo Fisher) according to the manufacturer's instructions. […] Aβ levels were normalized to total protein concentration determined by BCA assay. […]

T1 sequence (P05067 18-695 isoform P05067-4 limits assumed): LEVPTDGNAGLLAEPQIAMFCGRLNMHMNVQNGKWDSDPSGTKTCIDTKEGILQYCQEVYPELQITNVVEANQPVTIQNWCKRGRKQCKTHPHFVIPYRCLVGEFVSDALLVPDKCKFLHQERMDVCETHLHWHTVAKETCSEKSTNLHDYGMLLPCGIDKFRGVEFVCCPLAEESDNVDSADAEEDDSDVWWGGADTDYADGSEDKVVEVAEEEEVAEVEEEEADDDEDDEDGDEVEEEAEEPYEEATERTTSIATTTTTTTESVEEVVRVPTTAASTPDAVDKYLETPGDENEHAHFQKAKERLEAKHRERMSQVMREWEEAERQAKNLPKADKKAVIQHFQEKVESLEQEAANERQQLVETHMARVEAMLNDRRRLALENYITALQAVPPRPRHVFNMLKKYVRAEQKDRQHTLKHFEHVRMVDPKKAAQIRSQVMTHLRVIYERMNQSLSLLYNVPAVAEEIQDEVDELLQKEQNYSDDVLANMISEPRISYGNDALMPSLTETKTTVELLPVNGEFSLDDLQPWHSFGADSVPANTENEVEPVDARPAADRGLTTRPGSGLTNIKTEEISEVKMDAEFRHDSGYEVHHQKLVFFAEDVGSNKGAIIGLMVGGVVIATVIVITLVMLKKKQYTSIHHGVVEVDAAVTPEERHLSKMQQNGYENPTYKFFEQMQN
T1 sequence (Q14444 whole entry): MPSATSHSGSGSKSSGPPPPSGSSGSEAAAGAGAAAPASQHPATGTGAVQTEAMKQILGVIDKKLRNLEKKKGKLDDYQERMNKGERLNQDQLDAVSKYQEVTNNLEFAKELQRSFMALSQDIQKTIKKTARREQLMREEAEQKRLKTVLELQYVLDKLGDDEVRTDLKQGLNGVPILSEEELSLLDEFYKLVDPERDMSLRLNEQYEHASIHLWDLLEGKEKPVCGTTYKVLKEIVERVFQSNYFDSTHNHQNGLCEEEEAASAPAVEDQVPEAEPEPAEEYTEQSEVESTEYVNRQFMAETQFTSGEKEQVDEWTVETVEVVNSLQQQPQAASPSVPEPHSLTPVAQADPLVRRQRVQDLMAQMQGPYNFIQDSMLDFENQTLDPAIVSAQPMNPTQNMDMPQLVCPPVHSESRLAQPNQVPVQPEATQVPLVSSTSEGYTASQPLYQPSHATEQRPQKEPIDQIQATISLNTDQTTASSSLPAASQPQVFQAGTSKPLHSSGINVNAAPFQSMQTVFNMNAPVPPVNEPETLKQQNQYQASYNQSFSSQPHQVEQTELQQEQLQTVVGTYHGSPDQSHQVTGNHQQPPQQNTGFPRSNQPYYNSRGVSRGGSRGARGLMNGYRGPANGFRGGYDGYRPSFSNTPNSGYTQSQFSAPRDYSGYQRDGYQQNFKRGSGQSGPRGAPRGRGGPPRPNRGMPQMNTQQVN

COc1cccc(NC(=O)Nc2nc3ccc(C(=O)N4CCOCC4)cc3s2)c1 [compound 0152]
Decrease of dissociation rate constant (Koff) of APP695–CAPRIN1 [1]: 10 fold
Increase of association rate constant (Kon) of APP695–CAPRIN1 [1]: 3.5 fold
Reduction of equilibrium dissociation constant (KD) of APP695–CAPRIN1 [1]: 36 fold
APP/Aβ42 immunoreactivity in organoids ([2]; AG27606 and UKBi011A organoids, 10 µM): reduced APP/Aβ42 levels
Aβ42 in organoids by ELISA ([2]; AG27606 organoids, RIPA-soluble and formic acid-solubilized fractions): significantly reduced Aβ42 levels
CAPRIN1–APP colocalization in organoids ([2]; AG27606 organoids, treated for three months): increased CAPRIN1–APP colocalization
